Experimental data from paper PMC10743883, “Identification and Functional Analysis of an Epsilon Class Glutathione S-Transferase Gene Associated with α-Pinene Adaptation in Monochamus alternatus” (International Journal of Molecular Sciences, 2023).

System: MaGSTe3
Experiment: GSH conjugation, absorbance at […] nm, Michaelis-Menten fit
Type: biochemical, Monochamus alternatus
Details: co-substrate GSH (concentration not given); 100 mM PBS; CDNB varied, printed range 0–400 mM

SMILES: O=[N+]([O-])c1ccc(Cl)c([N+](=O)[O-])c1 [1-chloro-2,4-dinitrobenzene]
- Km: 1240 ± 210 µM
